Test results published in patent US20240076285A1, “COMPOUNDS AND COMPOSITIONS FOR TREATING CONDITIONS ASSOCIATED WITH STING ACTIVITY” (IFM Due, Inc., priority 2020, published 2024).

Target: T1, hSTING (Homo sapiens, UniProt Q86WV6, G230A/H232R/R293Q/R71H)
T1 construct: host or cells: THP1-Dual KO-IFNAR2 cells
Test: STING reporter assay in THP1-Dual KO-IFNAR2 cells (2'3'cGAMP stimulation, luciferase reporter)
Format: cell-based
Conditions: 15 μM 2'3'cGAMP, 24 h, class symbols
Protocol: STING pathway activation by the compounds described herein was measured using THP1-Dual™ cells (KO-IFNAR2).
THP1-Dual™ KO-IFNAR2 Cells (obtained from invivogen) were maintained in RPMI, 10% FCS, 5 ml P/S, 2 mM L-glut, 10 mM Hepes, and 1 mM sodium pyruvate. Compounds were spotted in empty 384 well tissue culture plates (Greiner 781182) by Echo for a final concentration of 0.0017-100 μM. Cells were plated into the TC plates at 40 μL per well, 2×10E6 cells/mL. For activation with STING ligand, 2′3′cGAMP (MW 718.38, obtained from Invivogen), was prepared in Optimem media.
The following solutions were prepared for each 1×384 plate: • Solution A: 2 mL Optimem with one of the following stimuli: • 60 μL of 10 mM 2′3′cGAMP→150 μM stock • Solution B: 2 mL Optimem with 60 μL Lipofectamine 2000→Incubate 5 min at RT
2 mL of solution A and 2 ml Solution B was mixed and incubated for 20 min at room temperature (RT). 20 μL of transfection solution (A+B) was added on top of the plated cells, with a final 2′3′cGAMP concentration of 15 μM. The plates were then centrifuged immediately at 340 g for 1 minute, after which they were incubated at 37° C., 5% CO2, >98% humidity for 24 h. Luciferase reporter activity was then measured. EC50 values were calculated by using standard methods known in the art.
Luciferase reporter assay: 10 μL of supernatant from the assay was transferred to white 384-plate with flat bottom and squared wells. One pouch of QUANTI-Luc™ Plus was dissolved in 25 mL of water. 100 μL of QLC Stabilizer per 25 mL of QUANTI-Luc™ Plus solution was added. 50 μL of QUANTI-Luc™ Plus/QLC solution per well was then added. Luminescence was measured on a Platereader (e.g., Spectramax I3X (Molecular Devices GF3637001)).
Luciferase reporter activity was then measured. EC50 values were calculated by using standard methods known in the art.

T1 sequence (Q86WV6 whole entry R71H/G230A/H232R/R293Q): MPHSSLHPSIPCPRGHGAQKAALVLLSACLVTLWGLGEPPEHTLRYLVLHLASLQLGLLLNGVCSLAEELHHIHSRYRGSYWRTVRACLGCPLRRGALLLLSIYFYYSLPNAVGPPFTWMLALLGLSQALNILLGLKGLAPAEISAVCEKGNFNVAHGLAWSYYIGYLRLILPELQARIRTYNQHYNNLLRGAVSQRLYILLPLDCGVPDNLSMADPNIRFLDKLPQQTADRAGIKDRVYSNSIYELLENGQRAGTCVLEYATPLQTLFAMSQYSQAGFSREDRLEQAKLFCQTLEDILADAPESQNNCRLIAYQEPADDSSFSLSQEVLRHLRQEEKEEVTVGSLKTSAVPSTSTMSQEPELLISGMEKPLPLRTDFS

EC50 [nM] | SMILES
40 to 200 | N#Cc1cc(Nc2ccc(Cl)c(F)c2)cc(Nc2cc(Cl)c3cc[nH]c3c2)n1 [Compound 165, 6-[(4-chloro-1H-indol-6-yl)amino]-4-[(4-chloro-3-fluorophenyl)amino]pyridine-2-carbonitrile]
40 to 200 | N#Cc1cc(Nc2ccc(F)c(F)c2)cc(Nc2cc(Cl)c3cc[nH]c3c2)n1 [Compound 168, 6-[(4-chloro-1H-indol-6-yl)amino]-4-[(3,4-difluorophenyl)amino]pyridine-2-carbonitrile]
40 to 200 | N#Cc1cc(Nc2ccc(F)c(Cl)c2)cc(Nc2cc(Cl)c3cc[nH]c3c2)n1 [Compound 169, 6-[(4-chloro-1H-indol-6-yl)amino]-4-[(3-chloro-4-fluorophenyl)amino]pyridine-2-carbonitrile]
200 to 1000 | Cc1nc2cc(Nc3cc(C#N)nc(Nc4cc(Cl)c5cc[nH]c5c4)c3)ccc2s1 [Compound 172, 6-[(4-chloro-1H-indol-6-yl)amino]-4-[(2-methyl-1,3-benzothiazol-5-yl)amino]pyridine-2-carbonitrile]
200 to 1000 | N#Cc1cc(Nc2ccc(C(F)(F)F)c(Cl)c2)cc(Nc2cc(Cl)c3cc[nH]c3c2)n1 [Compound 173, 6-[(4-chloro-1H-indol-6-yl)amino]-4-{[3-chloro-4-(trifluoromethyl)phenyl]amino}pyridine-2-carbonitrile]
200 to 1000 | Cc1nn(C)c2ccc(Nc3cc(C#N)nc(Nc4cc(Cl)c5cc[nH]c5c4)c3)cc12 [Compound 176, 6-[(4-chloro-1H-indol-6-yl)amino]-4-[(1,3-dimethyl-1H-indazol-5-yl)amino]pyridine-2-carbonitrile]
40 to 200 | N#Cc1cc(Nc2ccc3c(c2)OC(F)(F)O3)cc(Nc2cc(Cl)c3cc[nH]c3c2)n1 [Compound 177, 6-[(4-chloro-1H-indol-6-yl)amino]-4-[(2,2-difluoro-2H-1,3-benzodioxol-5-yl)amino]pyridine-2-carbonitrile]
200 to 1000 | CC1(C)C(=O)Nc2cc(Nc3cc(C#N)nc(Nc4cc(Cl)c5cc[nH]c5c4)c3)ccc21 [Compound 178, 6-[(4-chloro-1H-indol-6-yl)amino]-4-[(3,3-dimethyl-2-oxo-2,3-dihydro-1H-indol-6-yl)amino]pyridine-2-carbonitrile]
200 to 1000 | Cc1nc2ccc(Nc3cc(C#N)nc(Nc4cc(Cl)c5cc[nH]c5c4)c3)cc2s1 [Compound 179, 6-[(4-chloro-1H-indol-6-yl)amino]-4-[(2-methyl-1,3-benzothiazol-6-yl)amino]pyridine-2-carbonitrile]
1000 to 5000 | N#Cc1cc(Nc2ccc3c(c2)C(=O)NC3)cc(Nc2cc(Cl)c3cc[nH]c3c2)n1 [Compound 180, 6-[(4-chloro-1H-indol-6-yl)amino]-4-[(3-oxo-2,3-dihydro-1H-isoindol-5-yl)amino]pyridine-2-carbonitrile]
1000 to 5000 | N#Cc1cc(Nc2ccc3c(c2)CC(=O)N3)cc(Nc2cc(Cl)c3cc[nH]c3c2)n1 [Compound 181, 6-[(4-chloro-1H-indol-6-yl)amino]-4-[(2-oxo-2,3-dihydro-1H-indol-5-yl)amino]pyridine-2-carbonitrile]
200 to 1000 | Cc1ccc(Nc2cc(C#N)nc(Nc3cc(Cl)c4cc[nH]c4c3)c2)cn1 [Compound 184, 6-[(4-chloro-1H-indol-6-yl)amino]-4-[(6-methylpyridin-3-yl)amino]pyridine-2-carbonitrile]
40 to 200 | N#Cc1cc(Nc2ccc3c(c2)CCC3)cc(Nc2cc(Cl)c3cc[nH]c3c2)n1 [Compound 188, 6-[(4-chloro-1H-indol-6-yl)amino]-4-[(2,3-dihydro-1H-inden-5-yl)amino]pyridine-2-carbonitrile]
1000 to 5000 | CNC(=O)c1ccc(Nc2cc(C#N)nc(Nc3cc(Cl)c4cc[nH]c4c3)c2)cc1F [Compound 190, 4-({2-[(4-chloro-1H-indol-6-yl)amino]-6-cyanopyridin-4-yl}amino)-2-fluoro-N-methylbenzamide]
1000 to 5000 | N#Cc1cc(Nc2ccc3c(c2)OCCO3)cc(Nc2cc(Cl)c3cc[nH]c3c2)n1 [Compound 191, 6-[(4-chloro-1H-indol-6-yl)amino]-4-[(2,3-dihydro-1,4-benzodioxin-6-yl)amino]pyridine-2-carbonitrile]

The next lines start with the compound.

SMILES | EC50 [nM]
N#Cc1cc(Nc2cc(Cl)cc(Cl)c2)cc(Nc2cc(Cl)c3cc[nH]c3c2)n1 [Compound 164, 6-[(4-chloro-1H-indol-6-yl)amino]-4-[(3,5-dichlorophenyl)amino]pyridine-2-carbonitrile] | 200 to 1000
COc1ccc(Nc2cc(C#N)nc(Nc3cc(Cl)c4cc[nH]c4c3)c2)cn1 [Compound 166, 6-[(4-chloro-1H-indol-6-yl)amino]-4-[(6-methoxypyridin-3-yl)amino]pyridine-2-carbonitrile] | 200 to 1000
N#Cc1cc(Nc2cc(Cl)cc(OC(F)(F)F)c2)cc(Nc2cc(Cl)c3cc[nH]c3c2)n1 [Compound 167, 6-[(4-chloro-1H-indol-6-yl)amino]-4-{[3-chloro-5-(trifluoromethoxy)phenyl]amino}pyridine-2-carbonitrile] | 200 to 1000
N#Cc1cc(Nc2cc(F)cc(F)c2)cc(Nc2cc(Cl)c3cc[nH]c3c2)n1 [Compound 170, 6-[(4-chloro-1H-indol-6-yl)amino]-4-[(3,5-difluorophenyl)amino]pyridine-2-carbonitrile] | 40 to 200
N#Cc1cc(Nc2cc(F)cc(Cl)c2)cc(Nc2cc(Cl)c3cc[nH]c3c2)n1 [Compound 171, 6-[(4-chloro-1H-indol-6-yl)amino]-4-[(3-chloro-5-fluorophenyl)amino]pyridine-2-carbonitrile] | 200 to 1000
CCc1ccc(Nc2cc(C#N)nc(Nc3cc(Cl)c4cc[nH]c4c3)c2)cn1 [Compound 174, 6-[(4-chloro-1H-indol-6-yl)amino]-4-[(6-ethylpyridin-3-yl)amino]pyridine-2-carbonitrile] | 200 to 1000
N#Cc1cc(Nc2cncc(Cl)c2)cc(Nc2cc(Cl)c3cc[nH]c3c2)n1 [Compound 175, 6-[(4-chloro-1H-indol-6-yl)amino]-4-[(5-chloropyridin-3-yl)amino]pyridine-2-carbonitrile] | 200 to 1000
N#Cc1cc(Nc2ccc(OC(F)F)nc2)cc(Nc2cc(Cl)c3cc[nH]c3c2)n1 [Compound 182, 6-[(4-chloro-1H-indol-6-yl)amino]-4-{[6-(difluoromethoxy)pyridin-3-yl]amino}pyridine-2-carbonitrile] | 40 to 200
N#Cc1cc(Nc2ccc(C(F)(F)F)nc2)cc(Nc2cc(Cl)c3cc[nH]c3c2)n1 [Compound 183, 6-[(4-chloro-1H-indol-6-yl)amino]-4-{[6-(trifluoromethyl)pyridin-3-yl]amino}pyridine-2-carbonitrile] | 200 to 1000
COc1cc(Cl)cc(Nc2cc(C#N)nc(Nc3cc(Cl)c4cc[nH]c4c3)c2)c1 [Compound 185, 6-[(4-chloro-1H-indol-6-yl)amino]-4-[(3-chloro-5-methoxyphenyl)amino]pyridine-2-carbonitrile] | 40 to 200
N#Cc1cc(Nc2cc(F)cc(C(F)(F)F)c2)cc(Nc2cc(Cl)c3cc[nH]c3c2)n1 [Compound 186, 6-[(4-chloro-1H-indol-6-yl)amino]-4-{[3-fluoro-5-(trifluoromethyl)phenyl]amino}pyridine-2-carbonitrile] | 200 to 1000
N#Cc1cc(Nc2cncc(C(F)(F)F)c2)cc(Nc2cc(Cl)c3cc[nH]c3c2)n1 [Compound 187, 6-[(4-chloro-1H-indol-6-yl)amino]-4-{[5-(trifluoromethyl)pyridin-3-yl]amino}pyridine-2-carbonitrile] | 200 to 1000
N#Cc1cc(Nc2ccc3c(c2)OC(F)(F)C(F)(F)O3)cc(Nc2cc(Cl)c3cc[nH]c3c2)n1 [Compound 189, 6-[(4-chloro-1H-indol-6-yl)amino]-4-[(2,2,3,3-tetrafluoro-2,3-dihydro-1,4-benzodioxin-6-yl)amino]pyridine-2-carbonitrile] | 40 to 200
